According to patent publication US20110166196A1, “TREATMENT AND PROPHYLAXIS OF EPILEPSY AND FEBRILE SEIZURES” (priority 2008, published 2011):

Experiments:
[1] = test system: excitatory synapses onto CA1 hippocampal interneurons; experiment: HFS-induced long-term depression (LTD) of EPSCs, whole-cell recording in hippocampal slices; assay type: cell-based, rat
Source text: (§1) The basic methods have been detailed previously (McMahon and Kauer, 1997). Sprague-Dawley rats (15-22 days old) were used in the majority of experiments. In addition, we used TRPV1^−/− mice (Caterina et al., 2000) and wild-type C57BL/6 mice aged between 15 and 21 days (Jackson Laboratory). The TRPV1^−/− mice we used have been backcrossed at least 10 times onto a C57BL/6 background and were obtained from homozygous breeding pairs. Control mice were therefore not littermates but were age-matched, wild-type C57BL/6 animals received from the same supplier in the same shipment. All animal protocols were approved by the Brown University Institutional Animal Care and Use Committee. For mouse experiments, only one brain slice per mouse was used for each experiment, so that reported ‘n’ numbers represent the number of animals. Animals were anaesthetized using halothane or isoflurane and quickly decapitated. The brain was rapidly removed and 300 μm thick coronal slices prepared and stored for at least one hour submerged on a net in artificial cerebrospinal fluid (ACSF) containing in mM: 119 NaCl, 26 NaHCO3, 2.5 KCl, 1.0 NaH2PO4, 2.5 CaCl2, 1.3 MgSO4 and 11 dextrose, saturated with 95% O2/5% CO2 (pH 7.4). Slices were then transferred to a submerged recording chamber and bathed in oxygenated ACSF (28-32° C.) containing elevated divalent cations to reduce epileptiform activity (4 mM CaCl2 and 4 mM MgCl2, replacing MgSO4). A surgical cut was made between the CA3 and CA1 regions. The storage of slices submerged on a net rather than in an interface chamber on filter paper may be important in maintaining slice health and improving the likelihood of observing LTD.
(§2) Slices were continuously perfused with ACSF warmed to 28-32° C. at a flow rate of 1-2 ml/min. Picrotoxin (100 μM) and D-AP5 (50 μM) were added to block GABAA receptor- and NMDAR-mediated synaptic transmission. Whole-cell patch clamp recordings were made from interneurons identified visually in the CA1 stratum radiatum of the hippocampus. […] Patch pipettes were filled with internal recording solution containing in mM: 117 cesium gluconate, 2.8 NaCl, 5 MgCl2, 20 HEPES, 2 ATP-Na^+, 0.3 GTP-Na^+ and 0.6 EGTA. In some experiments 2 μM capsazepine, 140 nM baicalein, or 250 μM GDPβS were also included in the intracellular patch pipette solution. In experiments with BAPTA-containing patch electrodes, EGTA was omitted from the intracellular solution and 25 or 40 mM BAPTA replaced a corresponding amount of cesium gluconate. EPSCs were stimulated at 0.1 Hz (100 μsec) using a bipolar stainless steel stimulating electrode placed in stratum radiatum at least 200 μm from the recorded cell. CA1 interneurons were voltage clamped at −65 mV (not corrected for the liquid junction potential, of ˜10 mV), and EPSCs were evoked by paired pulses with an interval of 50 msec (stimulus intensity typically 50-400 μA). In early experiments, we measured rectification ratios of EPSCs evoked at +40 mV/−60 mV in the presence of 50 μM D-AP5, measured at the time of peak inward synaptic current seen at −70 mV (Lei and McBain, 2004).
High-frequency stimulation was used to induce LTD (HFS; two 1 sec trains at 100 Hz, inter-train interval 20 sec, at 1.5 times test current intensity) with the neuron held in current-clamp mode, so that the HFS trains were delivered with the membrane potential free to vary. Receptor antagonists were added directly to the ACSF at known concentrations for at least 10 minutes prior to HFS. Control experiments were interleaved with those experiments using receptor antagonists or involving slices from TRPVl^−/− mice. The cell input resistance and series resistance were monitored throughout each experiment; cells were discarded if these values changed by more than 10% during the experiment.

[2] = test system: excitatory synapses onto CA1 hippocampal interneurons; experiment: Drug-induced depression of EPSC amplitudes, whole-cell recording in hippocampal slices; assay type: cell-based, rat
Source text: as §1, §2
(§3) The maximal initial slope of fEPSPs was calculated using a LabVIEW-based program (National Instruments). The peak amplitude of each EPSC was measured by comparing a 10 msec time period immediately prior to the stimulus with the peak of the EPSC using this program as well. Occasionally polysynaptic responses were evoked, and in these cases, only the initial monosynaptic event was measured. To positively identify LTD, EPSCs measured every 10 seconds were averaged in 1 minute intervals. EPSC amplitude values were normalized to control pre-HFS EPSC amplitude values (baseline period of at least 5 minutes prior to HFS) and subjected to analysis of variance (ANOVA) repeated measures analysis with a post-hoc Dunnett's test (GraphPad Prism, Version 4).

[3] = test system: excitatory synapses on interneurons; experiment: Drug-induced depression of EPSC amplitudes in slices from TRPV1-/- and C57BL/6 wild-type mice; assay type: cell-based, mouse; conditions: 12-(S)-HPETE 100 nM; TRPV1−/− mice; P=0.33, n=6
Source text: The basic methods have been detailed previously (McMahon and Kauer, 1997). Sprague-Dawley rats (15-22 days old) were used in the majority of experiments. In addition, we used TRPV1^−/− mice (Caterina et al., 2000) and wild-type C57BL/6 mice aged between 15 and 21 days (Jackson Laboratory). The TRPV1^−/− mice we used have been backcrossed at least 10 times onto a C57BL/6 background and were obtained from homozygous breeding pairs. Control mice were therefore not littermates but were age-matched, wild-type C57BL/6 animals received from the same supplier in the same shipment. All animal protocols were approved by the Brown University Institutional Animal Care and Use Committee. For mouse experiments, only one brain slice per mouse was used for each experiment, so that reported ‘n’ numbers represent the number of animals. Animals were anaesthetized using halothane or isoflurane and quickly decapitated. […]
Slices were continuously perfused with ACSF warmed to 28-32° C. at a flow rate of 1-2 ml/min. […] EPSCs were stimulated at 0.1 Hz (100 μsec) using a bipolar stainless steel stimulating electrode placed in stratum radiatum at least 200 μm from the recorded cell. […] In early experiments, we measured rectification ratios of EPSCs evoked at +40 mV/−60 mV in the presence of 50 μM D-AP5, measured at the time of peak inward synaptic current seen at −70 mV (Lei and McBain, 2004).
as §3, with “EPSC amplitude values were normalized to control pre-HFS EPSC amplitude values (baseline period of at least 5 minutes prior to HFS) and subjected to analysis of variance (ANOVA) repeated measures analysis with a post-hoc Dunnett's test (GraphPad Prism, Version 4).” left out

[4] = test system: excitatory synapses onto CA1 hippocampal interneurons; experiment: Synaptic failure analysis using minimal stimulation; assay type: cell-based, rat; conditions: 12-(S)-HPETE 100 nM; pre-application 35.2±1.9%; n=6
Experimental: as §2, with “CA1 interneurons were voltage clamped at −65 mV (not corrected for the liquid junction potential, of ˜10 mV), and EPSCs were evoked by paired pulses with an interval of 50 msec (stimulus intensity typically 50-400 μA).” left out

[5] = test system: synapses between CA3 and CA1 pyramidal cells; experiment: Field EPSP recordings in hippocampal slices; assay type: cell-based, rat; conditions: 100 nM 12-(S)-HPETE; P=0.83, n=5
Experimental: The maximal initial slope of fEPSPs was calculated using a LabVIEW-based program (National Instruments). The peak amplitude of each EPSC was measured by comparing a 10 msec time period immediately prior to the stimulus with the peak of the EPSC using this program as well. Occasionally polysynaptic responses were evoked, and in these cases, only the initial monosynaptic event was measured. To positively identify LTD, EPSCs measured every 10 seconds were averaged in 1 minute intervals. EPSC amplitude values were normalized to control pre-HFS EPSC amplitude values (baseline period of at least 5 minutes prior to HFS) and subjected to analysis of variance (ANOVA) repeated measures analysis with a post-hoc Dunnett's test (GraphPad Prism, Version 4). […] EPSC amplitude values 15 to 20 minutes post-HFS were compared between control LTD experiments and those carried out either in transgenic TRPV1^−/− mice, or in the presence of drug using a t-test (unpaired, two-tailed, with Welch's correction if the variances between the groups were unequal). To calculate the effects of capsaicin, 12-(S)-HPETE or WIN 55,212-2 application on basal excitatory glutamatergic transmission, normalized EPSC amplitudes or fEPSP slopes were averaged in the final 5 minutes of drug application and compared with EPSCs/EPSPs 5 minutes prior to drug application. In addition, to measure capsaicin's effects on holding current, the peak change in holding current was measured during bath application of 3 μM capsaicin. The n-values reported refer to the number of slices. All combined data are expressed as mean±the standard error of the mean (s.e.m.).

TRPV1 channels = molecular target: T1, TRPV1 channels (Mus musculus, UniProt Q704Y3); experiment: TRPV1 agonist-evoked inward current and depolarization in CA1 pyramidal neurons; assay type: cell-based; conditions: 12-(S)-HPETE 100 nM bath-applied
T1 construct: whole-cell recordings from acutely prepared brain slices from wild type C57BL/6 mice; from tissue; host or cells: acute coronal hippocampal slices from P14-P20 wild-type C57BL/6 mice: CA1 pyramidal neurons

hippocampal area CA1 = conditions: in vivo treatment of animals after the induction of febrile seizures; cited from earlier work
[6] = test system: CA1 pyramidal neurons from trpv1−/− mice; experiment: Residual heat-activated current in CA1 pyramidal neurons from trpv1-/- mice; assay type: cell-based, mouse; conditions: 10 μM ruthenium red bath; trpv1−/− CA1 neurons (34.6±8.4 pA without); n=5

T1 sequence (Q704Y3 whole entry): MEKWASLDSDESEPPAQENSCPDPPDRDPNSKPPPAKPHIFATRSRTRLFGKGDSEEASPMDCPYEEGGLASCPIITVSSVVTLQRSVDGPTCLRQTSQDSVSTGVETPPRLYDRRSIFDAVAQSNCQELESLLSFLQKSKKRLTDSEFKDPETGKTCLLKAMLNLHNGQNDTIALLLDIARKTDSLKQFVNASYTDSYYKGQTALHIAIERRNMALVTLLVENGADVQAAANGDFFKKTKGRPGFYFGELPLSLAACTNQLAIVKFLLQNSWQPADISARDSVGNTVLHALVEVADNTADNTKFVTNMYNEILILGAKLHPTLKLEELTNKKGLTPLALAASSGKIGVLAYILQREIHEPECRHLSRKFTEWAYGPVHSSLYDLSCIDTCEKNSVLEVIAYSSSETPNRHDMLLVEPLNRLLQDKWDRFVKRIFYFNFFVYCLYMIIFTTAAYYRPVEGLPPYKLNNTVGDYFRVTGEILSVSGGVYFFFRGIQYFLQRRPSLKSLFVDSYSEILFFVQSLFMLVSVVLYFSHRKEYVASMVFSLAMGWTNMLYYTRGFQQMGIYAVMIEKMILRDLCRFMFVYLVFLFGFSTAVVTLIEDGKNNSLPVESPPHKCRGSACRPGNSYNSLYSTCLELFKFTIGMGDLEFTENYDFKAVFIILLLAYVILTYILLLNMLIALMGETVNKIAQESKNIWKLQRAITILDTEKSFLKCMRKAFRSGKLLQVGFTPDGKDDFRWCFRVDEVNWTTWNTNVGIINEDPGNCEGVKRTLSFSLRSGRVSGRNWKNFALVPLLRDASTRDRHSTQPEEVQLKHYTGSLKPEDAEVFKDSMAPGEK

C=C(C)[C@]12C[C@@H](C)[C@@]34O[C@](Cc5ccccc5)(O[C@@H]1[C@@H]3C=C(COC(=O)Cc1cc(I)c(O)c(OC)c1)C[C@]1(O)C(=O)C(C)=C[C@@H]41)O2 [5′-Iodoresiniferatoxin]
EPSC amplitudes 15-20 minutes post-HFS in 5′-Iodoresiniferatoxin ([1]; 5′-Iodoresiniferatoxin 100 nM bath applied prior to HFS, n=7): 96.2±13.6 % of control values before HFS

CCCCC/C=C\C[C@@H](/C=C/C=C\C/C=C\CCCC(=O)O)OO [12-(S)-HPETE, 12-(S)-Hydroperoxyeicosa-5Z, 8Z, 10E, 14Z-tetraenoic acid]
EPSC amplitudes 15-20 minutes post-HFS ([1]; HFS after 12-(S)-HPETE 100 nM (occlusion), n=6): 98.7±15.3 % of control values in 12-(S)-HPETE before HFS
EPSC amplitudes after 10-15 minutes in 12-(S)-HPETE ([2]; 12-(S)-HPETE 100 nM bath-applied, n=8): 40.6±11.7 % of pre-drug control values
EPSC amplitudes after 10-15 minutes in 12-(S)-HPETE in TRPV1−/− mice [3]: 109.0±6.8 % of pre-drug control values
average synaptic failures in 12-(S)-HPETE [4]: 89.7±3.0%
fEPSP slopes after 10-15 minutes in 12-(S)-HPETE [5]: 99.0±3.5 % of pre-drug control values
12-(S)-HPETE-evoked current in CA1 neuron (TRPV1 channels): induces an inward current

Cc1c(C(=O)NN2CCCCC2)nn(-c2ccc(Cl)cc2Cl)c1-c1ccc(I)cc1 [AM251]
EPSC amplitudes 15-20 minutes post-HFS ([1]; AM251 2 μM bath-applied, n=8): 48.6±5.3 % of control values before HFS
EPSC amplitudes after 10-15 minutes in both WIN 55,212-2 and AM251 ([2]; AM251 2 μM applied before WIN 55,212-2 1 μM, n=5): 101.7±8.9 % of pre-WIN 55,212-2 control values

O=C(O)CN(CC(=O)O)c1ccccc1OCCOc1ccccc1N(CC(=O)O)CC(=O)O [BAPTA, 1,2-bis(o-aminophenoxy)ethane-N,N,N′,N′-tetraacetic acid]
cells recorded from with intracellular BAPTA that had LTD ([1]; patch pipette solution containing 25-40 mM BAPTA): 6 of 14
EPSC amplitudes 15-20 minutes post-HFS with intracellular BAPTA ([1]; patch pipette solution containing 25-40 mM BAPTA, n=14): 90.5±8.5 % of control values before HFS

N[C@H](CCCP(=O)(O)O)C(=O)O [D-AP5, D(−)-2-amino-5-phosphonovaleric acid]
EPSC amplitudes 15-20 minutes post-HFS ([1]; D-AP5 50 μM in bath, P<0.001, n=26, LTD not prevented): 62.0±5.3 % of control values before HFS

Nc1nc2c(ncn2[C@@H]2O[C@H](COP(=O)(O)OP(O)(O)=S)[C@@H](O)[C@H]2O)c(=O)[nH]1 [GDPβS]
cells recorded from with intracellular GDPβS that had LTD ([1]; patch pipette solution containing 250 μM GDPβS): 6 of 10
EPSC amplitudes 15-20 minutes post-HFS with intracellular GDPβS ([1]; patch pipette solution containing 250 μM GDPβS, n=10): 88.2±10.6 % of control values before HFS

COC(=O)[C@@H](N)CCCNC(=N)N[N+](=O)[O-] [L-NAME]
EPSC amplitudes 15-20 minutes post-HFS ([1]; 200 μM L-NAME bath applied 10 minutes prior to HFS, n=5): 46.3±10.4 % of control values before HFS

Cc1c(C(=O)NN2CCCCC2)nn(-c2ccc(Cl)cc2Cl)c1-c1ccc(Cl)cc1 [SR141716A]
EPSC amplitudes 15-20 minutes post-HFS ([1]; SR141716A 2-5 μM bath-applied, n=10, control LTD 62.0±5.3%): 110.6±19.3 % of control values before HFS
EPSC amplitudes after 10-15 minutes in capsaicin and in the presence of SR141716A ([2]; SR141716A 2 μM pretreatment, capsaicin 1 μM, n=6): 102.8±9.2 % of pre-capsaicin control values
EPSC amplitudes after 10-15 minutes in 12-(S)-HPETE and in the presence of SR141716A ([2]; SR141716A 2 μM, 12-(S)-HPETE 100 nM, n=5): 106.9±5.5 % of pre-12-(S)-HPETE control values
emergence of long-term limbic hyperexcitability (hippocampal area CA1): prevented the emergence of long-term limbic hyperexcitability
hyperexcitability in hippocampal area CA1 (hippocampal area CA1): reduced hyperexcitability in hippocampal area CA1

Cc1c(C(=O)c2cccc3ccccc23)c2cccc3c2n1[C@H](CN1CCOCC1)CO3 [WIN 55,212-2]
EPSC amplitudes 15-20 minutes post-HFS ([1]; pre-treatment with WIN 55,212-2 1 μM for at least ten minutes, n=12): 51.3±7.5 % of control values in WIN55,212-2 before HFS
EPSC amplitudes after 10-15 minutes in WIN 55,212-2 alone ([2]; WIN 55,212-2 1 μM bath-applied, n=14): 66.1±7.9 % of pre-drug control values

O=c1cc(-c2ccccc2)oc2cc(O)c(O)c(O)c12 [baicalein]
cells with potentiation (greater than 125% of control 20 minutes following the HFS) ([1]; baicalein 500 nM bath-applied): four of ten
EPSC amplitudes 15-20 minutes post-HFS ([1]; baicalein 500 nM bath-applied, n=10): 129.6±20.3 % of control values before HFS
cells recorded from with intracellular baicalein that had LTD ([1]; patch pipette solution containing 140 nM baicalein): 4 of 12
EPSC amplitudes 15-20 minutes post-HFS with intracellular baicalein ([1]; patch pipette solution containing 140 nM baicalein, n=12): 110.8±15.4 % of control values before HFS

N.N.N.N.N.N.N.N.N.N.N.N.N.N.[Cl-].[Cl-].[Cl-].[Cl-].[Cl-].[Cl-].[O-2].[O-2].[Ru+3].[Ru+3].[Ru+4] [ruthenium red]
peak heat-evoked inward current in ruthenium red [6]: 9.3±7.7 pA
